# Reference: US9273058B2 (BRISTOL-MYERS SQUIBB COMPANY, priority 2013, dated 2016)
# Experiments:
# [1] = target: CK1ε (Homo sapiens, UniProt P49674); test: CK1ε kinase assay (Caliper LabChip electrophoretic separation of fluoresceinated peptide substrate and product); type: biochemical; conditions: 200 pM CK1ε, 50 μM ATP, 1.5 μM peptide, 22 hours at room temperature; read-out: CK1ε IC50 range
# In short: (§1)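 Reactions ran 22 hours at room temperature and were stopped with EDTA. Phosphorylated product and unphosphorylated substrate were then separated electrophoretically. Compounds were tested at eleven concentrations, and IC50 values came from non-linear regression.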
# [2] = target: CK1δ (Homo sapiens, UniProt P48730); test: CK1δ kinase assay (Caliper LabChip electrophoretic separation of fluoresceinated peptide substrate and product); type: biochemical; conditions: 200 pM CK1δ, 50 μM ATP, 1.5 μM peptide, 22 hours at room temperature; read-out: CK1δ IC50 range
# In short: as §1
# CK1ε, sequence (P49674 whole entry): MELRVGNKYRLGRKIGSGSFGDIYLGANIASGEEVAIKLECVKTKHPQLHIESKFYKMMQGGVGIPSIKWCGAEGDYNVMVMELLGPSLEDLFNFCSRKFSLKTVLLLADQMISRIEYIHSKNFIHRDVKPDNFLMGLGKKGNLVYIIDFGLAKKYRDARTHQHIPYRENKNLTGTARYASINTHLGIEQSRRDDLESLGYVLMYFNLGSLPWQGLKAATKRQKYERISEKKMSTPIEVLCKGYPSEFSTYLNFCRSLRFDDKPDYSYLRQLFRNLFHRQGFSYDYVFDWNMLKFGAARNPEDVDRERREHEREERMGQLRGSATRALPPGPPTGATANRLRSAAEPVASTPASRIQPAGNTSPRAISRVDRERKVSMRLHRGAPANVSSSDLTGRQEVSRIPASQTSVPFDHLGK
# CK1δ, sequence (P48730 whole entry): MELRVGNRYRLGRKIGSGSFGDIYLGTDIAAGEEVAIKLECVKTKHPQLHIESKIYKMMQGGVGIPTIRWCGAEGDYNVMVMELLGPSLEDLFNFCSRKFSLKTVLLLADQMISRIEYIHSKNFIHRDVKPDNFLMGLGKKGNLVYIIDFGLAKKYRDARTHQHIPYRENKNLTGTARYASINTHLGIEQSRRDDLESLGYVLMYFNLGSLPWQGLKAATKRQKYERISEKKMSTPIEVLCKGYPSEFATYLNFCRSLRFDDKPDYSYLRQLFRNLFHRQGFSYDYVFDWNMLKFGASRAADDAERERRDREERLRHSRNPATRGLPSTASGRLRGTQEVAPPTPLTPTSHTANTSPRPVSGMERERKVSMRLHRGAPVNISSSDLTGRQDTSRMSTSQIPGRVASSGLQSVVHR
Compound,IC50 [1] [nM],IC50 [2] [nM]
"NC(=O)c1c(-c2ccc(Cl)c(Cl)c2)nn2c1CN(C(=O)NCC1CC(F)(F)C1)CC2 [Compound 205, 2-(3,4-Dichlorophenyl)-N^5-((3,3-difluorocyclobutyl)methyl)-6,7-dihydropyrazolo[1,5-a] pyrazine-3,5(4H)-dicarboxamide]",0.01 to 10,0.01 to 10
"NC(=O)c1c(-c2ccc(Cl)c(Cl)c2)nn2c1CN(C(=O)NCC1CCC(F)(F)CC1)CC2 [Compound 206, 2-(3,4-Dichlorophenyl)-N^5-((4,4-difluorocyclohexyl)methyl)-6,7-dihydropyrazolo[1,5-a] pyrazine-3,5(4H)-dicarboxamide]",0.01 to 10,0.01 to 10
"NC(=O)c1c(-c2ccc(Cl)c(Cl)c2)nn2c1CN(C(=O)NC1CC3(C1)CC(F)(F)C3)CC2 [Compound 208, 2-(3,4-Dichlorophenyl)-N^5-(6,6-difluorospiro [3.3]heptan-2-yl)-6,7-dihydropyrazolo[1,5-a] pyrazine-3,5(4H)-dicarboxamide]",0.01 to 10,0.01 to 10
"CC(CF)(CF)NC(=O)N1CCn2nc(-c3ccc(F)c(Cl)c3)c(C(N)=O)c2C1 [Compound 209, 2-(3-Chloro-4-fluorophenyl)-N^5-(1,3-difluoro-2-methylpropan-2-yl)-6,7-dihydropyrazolo[1,5-a]pyrazine-3,5(4H)-dicarboxamide]",0.01 to 10,0.01 to 10
"CC(C)(COC(F)(F)F)NC(=O)N1CCn2nc(-c3ccc(F)c(Cl)c3)c(C(N)=O)c2C1 [Compound 212, 2-(3-Chloro-4-fluorophenyl)-N^5-(2-methyl-1-(trifluoromethoxy)propan-2-yl)-6,7-dihydropyrazolo[1,5-a]pyrazine-3,5(4H)-dicarboxamide]",0.01 to 10,0.01 to 10
"CC(C)(NC(=O)N1CCn2nc(-c3ccc(F)c(Cl)c3)c(C(N)=O)c2C1)C(=O)NC1CC1 [Compound 213, 2-(3-Chloro-4-fluorophenyl)-N^5-(1-(cyclopropylamino)-2-methyl-1-oxopropan-2-yl)-6,7-dihydropyrazolo[1,5-a]pyrazine-3,5(4H)-dicarboxamide]",10 to 100,10 to 100
"CNC(=O)C(C)(C)NC(=O)N1CCn2nc(-c3ccc(F)c(Cl)c3)c(C(N)=O)c2C1 [Compound 214, 2-(3-Chloro-4-fluorophenyl)-N^5-(2-methyl-1-(methylamino)-1-oxopropan-2-yl)-6,7-dihydropyrazolo[1,5-a] pyrazine-3,5(4H)-dicarboxamide]",10 to 100,10 to 100
"CC(C)(NC(=O)N1CCn2nc(-c3ccc(F)c(Cl)c3)c(C(N)=O)c2C1)C(=O)N1CCCC1 [Compound 215, 2-(3-Chloro-4-fluorophenyl)-N^5-(2-methyl-1-oxo-1-(pyrrolidin-1-yl)propan-2-yl)-6,7-dihydropyrazolo [1,5-a]pyrazine-3,5(4H)-dicarboxamide]",10 to 100,0.01 to 10
"CC(C)NC(=O)C(C)(C)NC(=O)N1CCn2nc(-c3ccc(F)c(Cl)c3)c(C(N)=O)c2C1 [Compound 216, 2-(3-Chloro-4-fluorophenyl)-N^5-(1-(isopropylamino)-2-methyl-1-oxopropan-2-yl)-6,7-dihydropyrazolo[1,5-a] pyrazine-3,5(4H)-dicarboxamide]",100 to 2000,10 to 100
"COCCNC(=O)C(C)(C)NC(=O)N1CCn2nc(-c3ccc(F)c(Cl)c3)c(C(N)=O)c2C1 [Compound 217, 2-(3-Chloro-4-fluorophenyl)-N^5-(1-((2-methoxyethyl)amino)-2-methyl-1-oxopropan-2-yl)-6,7-dihydropyrazolo[1,5-a] pyrazine-3,5(4H)-dicarboxamide]",100 to 2000,10 to 100
"CN(C)C(=O)C(C)(C)NC(=O)N1CCn2nc(-c3ccc(F)c(Cl)c3)c(C(N)=O)c2C1 [Compound 218, 2-(3-Chloro-4-fluorophenyl)-N^5-(1-(dimethylamino)-2-methyl-1-oxopropan-2-yl)-6,7-dihydropyrazolo[1,5-a] pyrazine-3,5(4H)-dicarboxamide]",10 to 100,0.01 to 10
"CC(C)(NC(=O)N1CCn2nc(-c3ccc(F)c(Cl)c3)c(C(N)=O)c2C1)C(N)=O [Compound 219, N^5-(1-Amino-2-methyl-1-oxopropan-2-yl)-2-(3-chloro-4-fluorophenyl)-6,7-dihydropyrazolo[1,5-a] pyrazine-3,5(4H)-dicarboxamide]",10 to 100,10 to 100
"N#CCC1(NC(=O)N2CCn3nc(-c4ccc(F)c(Cl)c4)c(C(N)=O)c3C2)CCC1 [Compound 220, 2-(3-Chloro-4-fluorophenyl)-N^5-(1-(cyanomethyl)cyclobutyl)-6,7-dihydro pyrazolo[1,5-a]pyrazine-3,5(4H)-dicarboxamide]",0.01 to 10,0.01 to 10
"N#CCC1(NC(=O)N2CCn3nc(-c4cccc(Cl)c4)c(C(N)=O)c3C2)CCC1 [Compound 221, 2-(3-Chlorophenyl)-N^5-(1-(cyanomethyl)cyclobutyl)-6,7-dihydropyrazolo[1,5-a] pyrazine-3,5(4H)-dicarboxamide]",0.01 to 10,0.01 to 10
"N#CCC1(NC(=O)N2CCn3nc(-c4ccc(Cl)c(Cl)c4)c(C(N)=O)c3C2)CCC1 [Compound 222, N^5-(1-(Cyanomethyl)cyclobutyl)-2-(3,4-dichlorophenyl)-6,7-dihydropyrazolo[1,5-a] pyrazine-3,5(4H)-dicarboxamide]",0.01 to 10,0.01 to 10
"NC(=O)c1c(-c2ccc(Cl)c(Cl)c2)nn2c1CN(C(=O)NC1(COC(F)F)CCC1)CC2 [Compound 224, 2-(3,4-Dichlorophenyl)-N^5-(1-((difluoromethoxy)methyl)cyclobutyl)-6,7-dihydropyrazolo[1,5-a] pyrazine-3,5(4H)-dicarboxamide]",0.01 to 10,0.01 to 10

# Next, values leading:
IC50 [1] [nM],IC50 [2] [nM],Compound
0.01 to 10,0.01 to 10,"CC(C)(NC(=O)N1CCn2nc(-c3ccc(F)c(Cl)c3)c(C(N)=O)c2C1)c1ccc(C#N)cc1 [Compound 187, 2-(3-Chloro-4-fluorophenyl)-N^5-(2-(4-cyanophenyl)propan-2-yl)-6,7-dihydropyrazolo [1,5-a]pyrazine-3,5(4H)-dicarboxamide]"
0.01 to 10,0.01 to 10,"CC(F)(F)C(C)(C)NC(=O)N1CCn2nc(-c3ccc(F)c(Cl)c3)c(C(N)=O)c2C1 [Compound 188, 2-(3-Chloro-4-fluorophenyl)-N^5-(3,3-difluoro-2-methylbutan-2-yl)-6,7-dihydropyrazolo[1,5-a] pyrazine-3,5(4H)-dicarboxamide]"
0.01 to 10,0.01 to 10,"NC(=O)c1c(-c2ccc(F)c(Cl)c2)nn2c1CN(C(=O)N[C@H]1C[C@H](F)C1)CC2 [Compound 189, 2-(3-Chloro-4-fluorophenyl)-N^5-((1r,3r)-3-fluorocyclobutyl)-6,7-dihydropyrazolo[1,5-a] pyrazine-3,5(4H)-dicarboxamide]"
0.01 to 10,0.01 to 10,"NC(=O)c1c(-c2ccc(F)c(Cl)c2)nn2c1CN(C(=O)N[C@H]1C[C@@H](F)C1)CC2 [Compound 190, 2-(3-Chloro-4-fluorophenyl)-N^5-((1s,3s)-3-fluorocyclobutyl)-6,7-dihydropyrazolo[1,5-a] pyrazine-3,5(4H)-dicarboxamide]"
0.01 to 10,0.01 to 10,"NC(=O)c1c(-c2ccc(F)c(Cl)c2)nn2c1CN(C(=O)NCC1CC(F)(F)C1)CC2 [Compound 193, 2-(3-Chloro-4-fluorophenyl)-N^5-((3,3-difluorocyclobutyl)methyl)-6,7-dihydropyrazolo[1,5-a] pyrazine-3,5(4H)-dicarboxamide]"
0.01 to 10,0.01 to 10,"NC(=O)c1c(-c2ccc(F)c(Cl)c2)nn2c1CN(C(=O)NC1CC3(CC3)C1)CC2 [Compound 195, 2-(3-Chloro-4-fluorophenyl)-N^5-(spiro [2.3]hexan-5-yl)-6,7-dihydropyrazolo[1,5-a] pyrazine-3,5(4H)-dicarboxamide]"
0.01 to 10,0.01 to 10,"NC(=O)c1c(-c2ccc(F)c(Cl)c2)nn2c1CN(C(=O)NC1CC3(C1)CC(F)(F)C3)CC2 [Compound 196, 2-(3-Chloro-4-fluorophenyl)-N^5-(6,6-difluorospiro[3.3]heptan-2-yl)-6,7-dihydropyrazolo[1,5-a] pyrazine-3,5(4H)-dicarboxamide]"
0.01 to 10,0.01 to 10,"CC(C)(NC(=O)N1CCn2nc(-c3ccc(Cl)c(Cl)c3)c(C(N)=O)c2C1)C(F)F [Compound 199, 2-(3,4-Dichlorophenyl)-N^5-(1,1-difluoro-2-methylpropan-2-yl)-6,7-dihydropyrazolo[1,5-a]pyrazine-3,5(4H)-dicarboxamide]"
0.01 to 10,0.01 to 10,"CC(C)(NC(=O)N1CCn2nc(-c3ccc(Cl)c(Cl)c3)c(C(N)=O)c2C1)c1ccc(C#N)cc1 [Compound 200, N^5-(2-(4-Cyanophenyl)propan-2-yl)-2-(3,4-dichlorophenyl)-6,7-dihydropyrazolo[1,5-a] pyrazine-3,5(4H)-dicarboxamide]"
0.01 to 10,0.01 to 10,"NC(=O)c1c(-c2ccc(Cl)c(Cl)c2)nn2c1CN(C(=O)N[C@H]1C[C@H](F)C1)CC2 [Compound 202, 2-(3,4-Dichlorophenyl)-N^5-((1r,3r)-3-fluorocyclobutyl)-6,7-dihydropyrazolo[1,5-a] pyrazine-3,5(4H)-dicarboxamide]"
0.01 to 10,0.01 to 10,"NC(=O)c1c(-c2ccc(Cl)c(Cl)c2)nn2c1CN(C(=O)N[C@H]1C[C@@H](F)C1)CC2 [Compound 203, 2-(3,4-Dichlorophenyl)-N^5-((1s,3s)-3-fluorocyclobutyl)-6,7-dihydropyrazolo[1,5-a] pyrazine-3,5(4H)-dicarboxamide]"
0.01 to 10,0.01 to 10,"CO[C@H]1C[C@H](NC(=O)N2CCn3nc(-c4ccc(Cl)c(Cl)c4)c(C(N)=O)c3C2)C1 [Compound 204, 2-(3,4-Dichlorophenyl)-N^5-((1r,3r)-3-methoxycyclobutyl)-6,7-dihydropyrazolo[1,5-a] pyrazine-3,5(4H)-dicarboxamide]"
